Results published in PMC10538174, “Bioactivity-Guided Synthesis: In Silico and In Vitro Studies of β-Glucosidase Inhibitors to Cope with Hepatic Cytotoxicity” (Molecules, 2023).

Assays:
HepG2 cells = assay: MTT cell viability assay on HepG2 hepatic cancer cells; format: cell-based, human; settings: for viability at 200 µg / IC50: Homo sapiens, HepG2, 48 h, MTT, 48 h; for viability at 200 µg: concentration of 200 µg, read-out: % viability ± SD against HepG2 cancer cell lines; for IC50: read-out: IC50 ± SEM against HepG2 cancer cell line
Procedure: (§1) All of the reported results are the mean of three independent experiments, and those compounds showing > 50% inhibition were further analyzed for their IC50 values at different dilutions. The IC50 values were calculated by using nonlinear regression analysis and GraphPad Prism version 8. SEM = standard error mean.
The human liver cells were cultivated in Dulbecco’s modified Eagle medium (DMEM), in which 100 U/mL penicillin, 10% fetal bovine, and 100 µg/mL streptomycin were added and kept at 37 °C in a […] carbon dioxide-induced humidified environment. The human liver cells prepared as per the above procedure were then treated with synthesized compounds diluted to a 0.05% DMSO concentration.
By using an MTT assay, the %viability of cancer cells was evaluated. According to the standard procedure, the HepG2 cells were treated with various dosages of synthesized compounds for 48 h each. The cells were then incubated for 4 h at 37 °C with 10 μMTT reagent (5 mg/mL). Next, 150 μL of DMSO was added to dissolve the formazan crystals. The λmax was recorded at […] in a microplate reader (Thermos Scientific, Waltham, MA, USA).

[1] = system: β-glucosidase from E. coli; assay: β-glucosidase enzyme inhibition assay (p-nitrophenyl-β-D-glucopyranoside substrate); format: biochemical; settings: for IC50: E. coli enzyme, pH 6.8, 37 °C, read at 405 nm, read-out: IC50 ± SEM against β-glucosidase; for % inhibition ± SD against β-glucosidase: test concentration not given
Procedure: β-glucosidase inhibition activity of the synthesized compounds, with an enzyme concentration of […] were used for the inhibition assay. The IC50 values were determined at different concentrations using Graph Pad Prism v5.0.
as §1
The inhibition analysis of β-glucosidase was carried out, where p-nitrophenyl-β-D-glucopyranoside was used as a substrate, and the β-glucosidase from E. coli (purchased from Sigma Aldrich) was dissolved in buffer solution (pH 6.8). A total volume of 60 µL of sodium phosphate buffer, 10 µL of each test sample (dissolved in 1% DMSO), and 10 µL of enzyme (1.5 U/mL) were mixed together and incubated for 5 min at 37 °C, followed by the addition of 10 µL of p-nitrophenyl-β-D-glucopyranoside (dissolved in a buffer solution). Incubation of the mixture was carried out for 30 min, and 10 µL of 0.2 M sodium carbonate solution was subsequently added. DMSO (1%) was used as a negative control. The p-nitrophenol produced from p-nitrophenyl-β-D-glucopyranoside was measured at a λmax of 405 nm in order to evaluate the activity of the test compounds against β-glucosidase. The %inhibition of β-glucosidase was calculated by the following formula: %Inhibition=(100−sample/control×100
Graph Pad Prism v5.00 was used to find out the IC50 (concentration at which 50% of enzymatic activity was inhibited by the test sample) value from a second-order regression analysis.

SMILES	IC50 (HepG2 cells) [µM]	IC50 [1] [nM]	viability at 200 µg (HepG2 cells) [%]	% inhibition ± SD against β-glucosidase [1] [%]	more anti-tumor activity against the HepG2 cell line than the known drug (HepG2 cells; versus thalidomide)	β-glucosidase inhibition better than the standard ([1]; versus acarbose) [%]
O=C(O)c1ccc(NC(=O)c2ccccc2C(=O)O)cc1 [Compound 1c]	–	1260	35.6	76 ± 1.41	–	40
O=C(O)c1ccccc1C(=O)Nc1ccc(Cl)cc1 [Compound 4c]	–	–	26.9	42 ± 1.42	–	–
O=C(O)c1ccc(N2C(=O)c3ccccc3C2=O)cc1 [Compound 9c]	–	–	–	61.5 ±0.12	–	–
O=C1c2ccccc2C(=O)N1c1ccccc1 [Compound 12c]	–	–	27.2	45.2 ±0.4	–	–
O=C1c2ccccc2C(=O)N1Cc1ccccc1 [Compound 6c]	–	–	–	45.0 ± 1.41	–	–
C[C@H]1O[C@H](O[C@H]2[C@H](O)[C@@H](O)[C@@H](O[C@H]3[C@H](O)[C@@H](O)C(O)O[C@@H]3CO)O[C@@H]2CO)[C@H](O)[C@@H](O)[C@@H]1N[C@H]1C=C(CO)[C@@H](O)[C@H](O)[C@H]1O (stereo partly shown) [Acarbose, reference compound]	–	2150	–	–	–	–

Second part, led by results:

IC50 (HepG2 cells) [µM]	IC50 [1] [nM]	SMILES	viability at 200 µg (HepG2 cells) [%]	% inhibition ± SD against β-glucosidase [1] [%]	more anti-tumor activity against the HepG2 cell line than the known drug (HepG2 cells; versus thalidomide)	β-glucosidase inhibition better than the standard ([1]; versus acarbose) [%]
12.8 ± 2.33	6980 ± 310	Cc1ccc(N2C(=O)c3ccccc3C2=O)cc1 [Compound 7c]	21.4 ± 3.4	63.5 ± 0.71	–	–
–	4780 ± 270	O=C(O)CCCCCN1C(=O)c2ccccc2C1=O [Compound 8c]	24.8	70.5 ± 2.12	–	–
48 ± 2.18	–	O=C1c2ccccc2C(=O)N1c1ccccc1F [Compound 10c]	20.5 ± 4.2	50.5 ± 2.31	–	–
–	2170 ± 110	O=C(O)c1ccccc1C(=O)Nc1ccc([N+](=O)[O-])cc1 [Compound 2c]	29.4	68 ± 1.41	–	–
–	3000 ± 170	O=C(O)c1ccccc1C(=O)Nc1ccc(Cl)c(C(F)(F)F)c1 [Compound 3c]	12.8	70 ± 2.82	greater than 9%	–
–	1260 ± 110	O=C(O)c1ccccc1C(=O)N1CCN(CCN2C(=O)c3ccccc3C2=O)CC1 [Compound 5c]	42.2 ± 2.2	71 ± 1.2	–	–
–	9570 ± 220	Cc1c(N2C(=O)c3ccccc3C2=O)c(=O)n(-c2ccccc2)n1C [Compound 11c]	40.8 ± 2.5	56.5 ± 2.45	–	–
